Assay results from patent publication US8153678B2, “Process for preparing A 3-pyrrole substituted 2-indolinone malate salt” (Medichem, S.A., priority 2008, dated 2012).

Test: solubility of sunitinib base (applicants' observation)
Type: physicochemical
Settings: qualitative; dissolution in solvents for salt preparation
Description: In this regard, the low solubility of sunitinib base requires large amounts of solvents or mixture of solvents and/or the use of particular harsh conditions aimed to increase the solubility of sunitinib base and/or reduce long reaction times, which represents a significant drawback, especially for industrial scale-up. Further, solid sunitinib base is difficult to handle since it is a very fine powder which is difficult to filter and isolate.

- solubility profile: low solubility profile
Compound: CCN(CC)CCNC(=O)c1c(C)[nH]c(/C=C2\C(=O)Nc3ccc(F)cc32)c1C [sunitinib base, N-[2-(diethylamino)ethyl]-5-[(Z)-(5-fluoro-1,2-dihydro-2-oxo-3H-indol-3-yliden)methyl]-2,4-dimethyl-1H-pyrrole-3-carboxamide]
